For data set [1], the system named is Candida albicans. The data set is described as follows: microbe, parasite or virus in culture. The format is functional. To be noted: CBS 562.
Description: Antifungal activity against Candida albicans CBS 562
In data set [2] the test system is Candida albicans. The data set is described as follows: microbe, parasite or virus in culture. The format is functional.
Description: Antifungal activity against Candida albicans 607
Data set [3] concerns Candida albicans. The data set is described as follows: microbe, parasite or virus in culture. The format is functional. The source holds these as a separate data set.
Description: Antifungal activity against Candida albicans 615
Data set [4] relates to Aspergillus fumigatus. The data set is described as follows: microbe, parasite or virus in culture. The format is functional. Conditions: ATCC 64026.
Description: Antifungal activity against Aspergillus fumigatus ATCC 64026
Data set [5] concerns Nakaseomyces glabratus. Description: microbe, parasite or virus in culture. The format is functional.
Description: Antifungal activity against Candida glabrata 566
The test system of data set [6] is Nakaseomyces glabratus. The data set is described as follows: microbe, parasite or virus in culture. The format is functional. This is another data set of the same source.
Description: Antifungal activity against Candida glabrata 572
Data set [7] has as its system Nakaseomyces glabratus. The data set is described as follows: microbe, parasite or virus in culture. It counts as functional. The source holds these as a separate data set.
Description: Antifungal activity against Candida glabrata 578
In data set [8] the test system is Nakaseomyces glabratus. Description: microbe, parasite or virus in culture. It counts as functional. The source holds these as a separate data set.
Description: Antifungal activity against Candida glabrata 646
Data set [9] deals with Nakaseomyces glabratus. The data set is described as follows: microbe, parasite or virus in culture. It counts as functional. This is another data set of the same source.
Description: Antifungal activity against Candida glabrata 648
The subject of data set [10] is Pichia kudriavzevii. Description: microbe, parasite or virus in culture. The format is functional.
Description: Antifungal activity against Candida krusei 603
For data set [11], the system named is Pichia kudriavzevii. Description: microbe, parasite or virus in culture. It counts as functional. This is another data set of the same source.
Description: Antifungal activity against Candida krusei 638
Data set [12] can be described thus: Toxicity in ICR mouse at 1 to 2 mg/ml, iv after 8 days. Conditions: in vivo.

The text below walks through data of ChEMBL document CHEMBL1146865, “Synthesis and antifungal activity of a novel series of alkyldimethylamine cyanoboranes and their derivatives” (J Med Chem, 2006).

Molecules are shown by their SMILES. Converted amounts (≈) assume the structure as drawn.

Take `CCCCCCCCCCCN(C)C.N#CBF`: the MIC in data set [1] was determined as 64 µM; in data set [2] it was 64 µM; in [3], 64 µM; in [4], 129 µM.

`BC(=O)O.BC(=O)O.CN(C)CCCCCCCCCCN(C)C`: the MIC in [1] is 188 µM; in [2], 188 µM; in [3], 907 µM.

With `BC#N.CN(C)C`, the MIC in [1] was 5100 µM; in data set [2] it was above 5100 µM; in data set [3], above 5100 µM; in data set [4], above 5100 µM.

On to `C[C@@H]1[C@H](O)[C@@H](C)/C=C/C=C/C=C/C=C/C=C/C=C/C=C/[C@H](O[C@@H]2O[C@H](C)[C@@H](O)[C@H](N)[C@@H]2O)C[C@@H]2O[C@](O)(C[C@@H](O)C[C@@H](O)[C@H](O)CC[C@@H](O)C[C@@H](O)CC(=O)O[C@H]1C)C[C@H](O)[C@H]2C(=O)O` [AMPHOTERICIN B], for which the MIC stood at 0.54 µM (≈ 0.499 µg/mL) in [1]; 0.27 µM (≈ 0.25 µg/mL) in data set [2]; 0.27 µM (≈ 0.25 µg/mL) in data set [3]; 0.5 µM (≈ 0.462 µg/mL) in data set [4]; 0.13 µM (≈ 0.12 µg/mL) in [5]; 1.07 µM (≈ 0.989 µg/mL) in [6]. The MIC in data set [7] was 2.14 µM (≈ 1.98 µg/mL); in data set [8], 0.41 µM (≈ 0.379 µg/mL); in data set [9], 0.82 µM (≈ 0.758 µg/mL); in [10], 4.32 µM (≈ 3.99 µg/mL); in [11], 4.32 µM (≈ 3.99 µg/mL). Besides, in data set [12], the MTD at 192 h was determined as 2.6 µmol/kg.

For the molecule `CN(C)CCCCCCCCCCN(C)C.N#CB(Br)Br.N#CB(Br)Br`, the MIC in data set [1], in data set [2] and in data set [3] was 104 µM throughout.

For `CN(C)C.N#CB(Br)Br` [DIBROMOBORANECARBONITRILE; TRIMETHYLAMINE], the MIC is 1970 µM in [1], above 1970 µM in [2] and above 1970 µM in data set [3].

As to `BC#N.CCCCCCCCCCCCN(C)C` [DODECYLDIMETHYLAMINE CYANOBORANE], the MIC in [1], in data set [2] and in data set [3] was 61 µM each time.

`CCCCCCCCCCCN(C)C.N#CBBr`: the MIC in data set [1] worked out at 49 µM; in data set [2], 49 µM; in [3], 49 µM; in data set [4] it was 131 µM.

For `CCCCCCCCCCCN(C)C.N#CB(Br)Br`, the MIC in [1] amounted to 39 µM; in [2], 39 µM; in [3] it was 39 µM; in [4], 79 µM; in data set [5], 20.2 µM; in data set [6], 40.4 µM. Also, the MIC came out at 40.4 µM in data set [7]; 20.2 µM in [8]; 20.2 µM in [9]; 10.1 µM in data set [10]; 10.1 µM in data set [11]. The molecule also registered an MTD at 192 h in [12] of 73.1 µmol/kg.

As to `OC(Cn1cncn1)(Cn1cncn1)c1ccc(F)cc1F` [FLUCONAZOLE], the MIC in [1] is 1.6 µM (≈ 0.49 µg/mL); in data set [2] it was 1.6 µM (≈ 0.49 µg/mL); in data set [3], 1.6 µM (≈ 0.49 µg/mL); in [4] it was above 208 µM; in [6], above 836 µM; in data set [7] it was above 836 µM. Also, the MIC in data set [8] was 52.2 µM (≈ 16 µg/mL); in data set [10], 104 µM (≈ 32 µg/mL); in [11] it was 104 µM (≈ 32 µg/mL).

`CN(C)CCCCCCCCCCN(C)C.N#CBBr.N#CBBr`: the MIC in data set [1], in data set [2] and in data set [3] was 140 µM in each case.
